Measured values as given in PMC5871694, “S-Adenosyl-L-Homocysteine Hydrolase Inhibition by a Synthetic Nicotinamide Cofactor Biomimetic” (Frontiers in Microbiology, 2018).
Values joined by “and” are separate entries in the source; they are usually repeats but may differ in a detail not shown here. Identical values can stand only once. Like-named read-outs stand apart in the source and are kept apart here.

How the values were obtained:
[1] = biological target: T1, Bradyrhizobium elkanii SAHase (BeSAHase) (Bradyrhizobium elkanii, UniProt A0A087WNH6); assay: HPLC-based endpoint activity assay in the direction of SAH synthesis; type: biochemical
T1 construct: His-tag (N); made in house; host or cells: E. coli
T1 sequence (A0A087WNH6 1-473): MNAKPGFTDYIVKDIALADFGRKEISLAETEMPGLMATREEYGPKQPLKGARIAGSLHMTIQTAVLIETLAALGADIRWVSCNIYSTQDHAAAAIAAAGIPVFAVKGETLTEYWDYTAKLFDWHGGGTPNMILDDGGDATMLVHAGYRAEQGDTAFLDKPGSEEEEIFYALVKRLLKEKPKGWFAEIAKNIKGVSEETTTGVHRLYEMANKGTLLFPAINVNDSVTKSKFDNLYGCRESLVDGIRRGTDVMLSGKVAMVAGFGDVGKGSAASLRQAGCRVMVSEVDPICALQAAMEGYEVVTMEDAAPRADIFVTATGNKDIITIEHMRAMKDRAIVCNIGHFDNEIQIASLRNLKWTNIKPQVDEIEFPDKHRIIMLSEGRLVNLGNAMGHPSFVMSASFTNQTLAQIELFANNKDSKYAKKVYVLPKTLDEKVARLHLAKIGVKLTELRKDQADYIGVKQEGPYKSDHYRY
Description: HPLC-based activity measurements in the direction of SAH synthesis were carried out as described by [Kailing et al. (2017)], with constant substrate concentrations (0.5 mM) of both Ado and Hcy. For the cofactor screenings, the assay was supplemented with 2 mM of the respective compound and reactions were initiated with ∼10 μg (700 nM final concentrations in assay) of apo- or holo-BeSAHase, respectively. One set of reactions was terminated after 30 min, the other after 17 h. […] Reactions were terminated after 30 min. Conversions were derived from HPLC chromatograms as described before ([Kailing et al., 2017]), plotted against the concentration of inhibitor and a linear regression analysis was performed with the GraphPad Prism software (v. 6.01). The IC50 was calculated as the concentration leading to half-maximum effect of the inhibitor.

[2] = biological target: T1, Bradyrhizobium elkanii SAHase (BeSAHase); assay: Photometric DTNB kinetic assay in the hydrolytic direction (SAH hydrolysis); type: biochemical
Description: Reactions were performed at room temperature in 100 μL sodium phosphate buffer (100 mM, pH 8), supplemented with 1 mM EDTA, 0.2 mM 5,5′-dithiobis(2-nitrobenzoic acid) (DTNB) and SAHase. In experiments with defined NAD^+ concentrations, apo-SAHase was pre-incubated with the respective amount of cofactor for at least 2 h, to ensure that the binding equilibrium was reached before initiation of the reaction. Enzyme concentrations were adjusted according to specific activity, to avoid exceeding maximum reaction rates (vmax) of 0.01 mM⋅min^-1. Higher reaction rates would lead to product inhibition, caused by the accumulation of Ado, in the time frame of the measurement. Reactions were initiated by addition of the substrate (SAH). The reaction rate was monitored photometrically, using DTNB to detect the formation of Hcy. Experiments were carried out in a double-beam UV-vis spectrophotometer (Specord 205, Analytik Jena). Initial reaction rates (v0) were calculated from the first 20–25 s of the reaction, based on the increase of extinction (ΔE) at 412 nm over time (Δt) in a quartz cuvette with a path length (d) of 1 cm, assuming an extinction coefficient (ε) of 14,150 L cm^-1 mol^-1 for the product: v0 = ΔE ⋅ ε412 nm–1 ⋅ d^-1 ⋅ Δt^-1. The assay was validated by comparison to data obtained with the coupled photometric assay described by [Kailing et al. (2017)]. The latter assay was not used in this study, since NCB 10 contributes to oxidation of the monitoring compound NADH in a non-enzymatic way, thereby compromising the reliability of the measurement.
Initial reaction rates were plotted against the concentration of inhibitor and a linear regression analysis was performed as described above for the HPLC assay. The inhibitory constant (Ki) was calculated from the following relation, where KM, [E] and [S] denote the Michaelis–Menten constant, concentration of enzyme and of substrate, respectively: IC50 = Ki ⋅ KM–1 ) + [E]0/2 ([Cha, 1975]). Characterization of the inhibition model was done by measuring Michaelis–Menten kinetics in the presence of varying inhibitor concentrations. KM and maximum reaction rate (vmax) values were obtained by non-linear Michaelis–Menten fitting using GraphPad Prism.
Kinetic-based binding studies to determine the half-maximum effective concentration (EC50) for NAD^+ were carried out with 330 nM SAHase, after pre-incubation with the respective amount of NAD^+, and constant substrate concentrations (0.2 mM SAH). Initial reaction rates were plotted against the NAD^+ concentration and a hyperbolic fit was calculated using GraphPad Prism. The EC50 was calculated as the NAD^+ concentration leading to half-maximum activation of BeSAHase.

[3] = biological target: T1, Bradyrhizobium elkanii SAHase (BeSAHase); assay: Isothermal titration calorimetry (ITC); type: binding; conditions: for binding to apo-BeSAHase: titration of apo-BeSAHase; for binding to holo-BeSAHase: titration of holo-BeSAHase; for KD: apo-BeSAHase titrated with cofactor, 25°C, pH 7
Description: Interaction analyses by ITC were performed with an Affinity ITC microcalorimeter (Low Volume, 24 K Gold Cell; TA Instruments). Prior to measurements, protein was dialyzed into 20 mM MOPS buffer containing 150 mM NaCl. The buffer was adjusted to pH 7 at room temperature, but dialysis was carried out at 4°C. To ensure equal buffer conditions, ligands were dissolved and diluted in the same buffer that was used for the last step of protein dialysis. Measurements were carried out at a constant cell temperature of 25°C. The cell was equilibrated with 40–90 μM SAHase for at least 10 min before the first injection of the respective ligand. The volume of the injections was varied between 2 and 4 μL, depending on the experiment and ligand concentration. The spacing between injections was adjusted according to the time required to reach the binding equilibrium (usually 240–500 s). Ligand titration was continued until peak sizes remained constant, representing only the enthalpy of dilution. The latter was subtracted from the raw data using a mock titration of the ligand into buffer only. Data evaluation was performed with the NanoAnalyze software (v. 3.7.5; TA Instruments), using the model “independent set of multiple binding sites” ([Freire et al., 1990]) for KD determination.

[4] = physiological pH, cited from earlier work
bovine liver SAHase = biological target: bovine liver SAHase; set-up: method as in Porter and Boyd, 1992; conditions: cited from earlier work
SAHase from humans = biological target: SAHase from humans; set-up: method as in Li Q.-S. et al., 2007; conditions: human SAHase; ref Li Q.-S. et al., 2007; cited from earlier work
[5] = biological target: SAHase from Trypanosoma cruzi; set-up: method as in Li Q.-S. et al., 2007; conditions: ref Li Q.-S. et al., 2007; cited from earlier work
[6] = calculated from IC50, KM, enzyme and substrate concentration
[7] = ref Porter and Boyd, 1992, read-out: KD (estimated)

In the case of `N#Cc1ccc[n+](Cc2ccccc2)c1` [NCB 10], the IC50 ([1]; 100 nM NAD+-saturated SAHase, 0.5 mM Ado and Hcy, 30 min, linear regression) is reported as ~1400 µM and 1440 µM, the inhibition at 2000 µM ([1]; holo-SAHase in the presence of excess NAD+, 2 mM compound, read-out: inhibition of substrate conversion) is reported as ~75% and the IC50 ([2]; 285 nM NAD+-saturated BeSAHase, 0.2 mM SAH, linear regression) is reported as ~14000 µM and 14400 µM. The inhibition mechanism ([2]; Michaelis-Menten kinetics with varying inhibitor concentrations) was “non-competitive”, the Ki [2, 6] was ~2000 µM and the “Ki,hydrolysis” value [2, 6] was “millimolar range”. For the same molecule, the “binding to apo-BeSAHase” value [3] was “small binding enthalpies”, the “binding to apo-BeSAHase” value ([3]; listed as 10) was “Neither titration of holo-, nor of apo-SAHase gave any hint of a binding event” and the “binding to holo-BeSAHase” value [3] was “small binding enthalpies”. For the same molecule, the “binding to holo-BeSAHase” value ([3]; listed as 10) was “Neither titration of holo-, nor of apo-SAHase gave any hint of a binding event” and the redox potential ([4]; 10ox/10red, ref Ostovic et al., 1985) was -220 mV.
In the case of `Nc1ncnc2c1ncn2[C@@H]1O[C@H](CO)[C@@H](O)[C@H]1O` [Ado, adenosine], the Kd (bovine liver SAHase; ref Porter and Boyd, 1992, read-out: KD) is given as 9 µM.
For `C=C1OC(n2cnc3c(N)ncnc32)C(O)C1=O` (stereo not shown) [4′,5′-dehydro-3′-ketoadenosine], the Kd (bovine liver SAHase; [7]) is listed as 0.0003 µM.
In the case of `NC(=O)c1ccc[n+]([C@@H]2O[C@H](COP(=O)([O-])OP(=O)(O)OC[C@H]3O[C@@H](n4cnc5c(N)ncnc54)[C@H](O)[C@@H]3O)[C@@H](O)[C@H]2O)c1` [NAD^+, nicotinamide adenine dinucleotide, reference compound], the “reconstitution of activity of apo-SAHase” value ([1]; apo-BeSAHase, 2 mM compound, 0.5 mM Ado and Hcy, 30 min and 17 h) is reported as “recovered highly active enzyme”, the “time to full substrate conversion after re-supplementation of apo-SAHase” value ([1]; apo-BeSAHase, HPLC-based assay conditions) is reported as “less than 30 min” and the EC50 ([2]; 330 nM apo-SAHase pre-incubated with NAD+, 0.2 mM SAH, hyperbolic fit, read-out: EC50 (half-maximum activation of BeSAHase)) is reported as ~10 µM and 11.2 µM. For the same molecule, the KD [3] was “low micromolar range” and the redox potential ([4]; NAD+/NADH, ref Burton and Wilson, 1953) was -320 mV.
For `NC(=O)C1=CN([C@@H]2O[C@H](COP(=O)(O)OP(=O)(O)OC[C@H]3O[C@@H](n4cnc5c(N)ncnc54)[C@H](O)[C@@H]3O)[C@@H](O)[C@H]2O)C=CC1` [NADH], the KD [3] is listed as “low micromolar range”, the KD range (SAHase from humans) is listed as “nanomolar” and the KD range [5] is listed as “nanomolar”.
In the case of `Nc1ncnc2c1ncn2C1OC(CO)C(=O)C1O` (stereo not shown) [3′-ketoadenosine], the Kd (bovine liver SAHase; [7]) is given as 0.0006 µM.
